pEC50, pIC50: −log10 of the molar value.
Experiments:
[1] = test system: Mus musculus; test: Hypoglycemic activity in diabetic KK-Ay mouse model assessed as decrease in glucose level at 10 mg/kg, po qd for 4 days relative to untreated control; format: functional; parameters: scale not given: the % may be the effect or the level left
[2] = target: T1, Peroxisome proliferator-activated receptor alpha (Homo sapiens) (UniProt Q07869); test: Transactivation of human full length PPARalpha expressed in COS1 cells co-transfected with RXRalpha after 24 hrs by luciferase reporter gene assay relative to WY14643; format: cell-based; conditions: COS-1
T1 sequence (whole entry): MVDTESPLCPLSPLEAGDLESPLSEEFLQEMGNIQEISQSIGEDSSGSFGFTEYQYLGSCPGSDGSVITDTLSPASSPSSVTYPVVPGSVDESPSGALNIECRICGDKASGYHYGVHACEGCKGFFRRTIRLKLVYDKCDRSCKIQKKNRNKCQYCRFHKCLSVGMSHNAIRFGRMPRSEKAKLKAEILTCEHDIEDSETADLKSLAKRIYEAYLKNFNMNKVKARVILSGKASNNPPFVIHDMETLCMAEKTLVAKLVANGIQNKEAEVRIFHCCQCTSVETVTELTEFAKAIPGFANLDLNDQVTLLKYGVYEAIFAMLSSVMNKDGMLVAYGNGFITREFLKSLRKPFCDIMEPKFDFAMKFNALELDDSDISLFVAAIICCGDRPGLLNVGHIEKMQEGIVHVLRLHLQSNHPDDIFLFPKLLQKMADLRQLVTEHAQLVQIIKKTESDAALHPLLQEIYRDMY

[3] = target: T2, Peroxisome proliferator-activated receptor gamma (Homo sapiens) (UniProt P37231); test: Transactivation of human full length PPARgamma expressed in COS1 cells co-transfected with RXRalpha after 24 hrs by luciferase reporter gene assay relative to farglitazar; format: cell-based; conditions: COS-1
T2 sequence (whole entry): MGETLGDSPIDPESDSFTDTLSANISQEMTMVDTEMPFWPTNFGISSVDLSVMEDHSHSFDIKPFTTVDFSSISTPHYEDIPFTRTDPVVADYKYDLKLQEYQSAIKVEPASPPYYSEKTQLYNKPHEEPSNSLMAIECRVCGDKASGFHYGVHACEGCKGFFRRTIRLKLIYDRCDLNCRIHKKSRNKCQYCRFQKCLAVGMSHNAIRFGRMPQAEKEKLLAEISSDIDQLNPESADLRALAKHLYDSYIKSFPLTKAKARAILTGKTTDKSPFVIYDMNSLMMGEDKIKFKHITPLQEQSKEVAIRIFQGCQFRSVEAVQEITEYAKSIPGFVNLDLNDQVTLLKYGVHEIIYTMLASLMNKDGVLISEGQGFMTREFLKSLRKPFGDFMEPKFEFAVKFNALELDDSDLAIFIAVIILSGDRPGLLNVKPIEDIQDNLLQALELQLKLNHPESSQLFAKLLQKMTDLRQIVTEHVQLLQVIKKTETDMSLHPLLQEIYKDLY

[4] = target: T3, Tyrosine-protein phosphatase non-receptor type 1 (Homo sapiens, UniProt P18031); test: Inhibition of PTB1B using pNPP as substrate after 30 mins
T3 sequence (P18031 whole entry): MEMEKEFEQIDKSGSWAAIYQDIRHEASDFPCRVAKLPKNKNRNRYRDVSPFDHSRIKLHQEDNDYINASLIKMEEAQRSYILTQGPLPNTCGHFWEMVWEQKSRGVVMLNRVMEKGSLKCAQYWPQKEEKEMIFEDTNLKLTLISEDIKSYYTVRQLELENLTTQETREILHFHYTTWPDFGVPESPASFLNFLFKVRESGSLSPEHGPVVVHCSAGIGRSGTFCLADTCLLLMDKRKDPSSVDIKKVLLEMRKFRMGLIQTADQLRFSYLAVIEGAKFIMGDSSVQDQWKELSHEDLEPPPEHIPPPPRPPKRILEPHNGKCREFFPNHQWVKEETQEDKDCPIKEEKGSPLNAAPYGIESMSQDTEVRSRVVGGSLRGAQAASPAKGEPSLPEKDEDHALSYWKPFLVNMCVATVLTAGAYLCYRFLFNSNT

[5] = target: T4, Peroxisome proliferator-activated receptor gamma (Homo sapiens, UniProt P37231); test: Transactivation of human full length PPARgamma expressed in COS1 cells co-transfected with RXRalpha after 24 hrs by luciferase reporter gene assay; format: cell-based, COS-1
T4 sequence (P37231 whole entry): T2 sequence (whole entry)

[6] = target: T5, Peroxisome proliferator-activated receptor alpha (Homo sapiens, UniProt Q07869); test: Transactivation of human full length PPARalpha expressed in COS1 cells co-transfected with RXRalpha after 24 hrs by luciferase reporter gene assay; format: cell-based, COS-1
T5 sequence (Q07869 whole entry): T1 sequence (whole entry)

[7] = target: T2, Peroxisome proliferator-activated receptor gamma (Homo sapiens); test: Ratio of rosiglitazone EC50 to compound EC50 for human full length PPARgamma

| SMILES | Emax [2] [%] | Emax [3] [%] | pIC50 [4] | pEC50 [5] | pEC50 [6] | Ratio EC50 [7] | Activity [1] [%] |
| --- | --- | --- | --- | --- | --- | --- | --- |
| CC(C)(C)N.CCCCCC(=O)N1Cc2cc(OCCc3nc(/C=C/CCC(C)C)oc3C)ccc2C[C@H]1C(=O)O | < 50 | 94 | 6.03 | 7.70 | – | – | 30 |
| C=CCCC(=O)N1Cc2cc(OCCc3nc(/C=C/CCC(C)C)oc3C)ccc2C[C@H]1C(=O)O.CC(C)(C)N | < 50 | 105 | 5.77 | 7.40 | – | – | 45 |
| CC(C)(C)N.CCOC/C=C/C(=O)N1Cc2cc(OCCc3nc(/C=C/CCC(C)C)oc3C)ccc2C[C@H]1C(=O)O | < 50 | 108 | 5.42 | 7.05 | – | – | 3 |
| CC(C)(C)N.Cc1oc(/C=C/CCC(C)C)nc1CCOc1ccc2c(c1)CN(C(=O)/C=C/c1ccco1)[C@H](C(=O)O)C2 | < 50 | 102 | 6.24 | 7.15 | – | – | 29 |
| C/C=C/C=C/C(=O)N1Cc2cc(OCCc3nc(/C=C/C(C)(C)CC)oc3C)ccc2C[C@H]1C(=O)O.CC(C)(C)N | < 50 | 77 | 5.92 | 6.12 | – | – | 16 |
| CC(C)(C)N.CCO/C=C/C(=O)N1Cc2cc(OCCc3nc(/C=C/CCC(C)C)oc3C)ccc2C[C@H]1C(=O)O | < 50 | 101 | 5.59 | 7.70 | – | – | 33 |
| C/C=C/C=C/C(=O)N1Cc2cc(OCCc3nc(/C=C/C(C)(C)C)oc3C)ccc2C[C@H]1C(=O)O.CC(C)(C)N | < 50 | 97 | 5.65 | 6.27 | – | – | 23 |
| C/C=C/C=C/C(=O)N1Cc2cc(OCCc3nc(/C(C)=C/CC)oc3C)ccc2C[C@H]1C(=O)O.CC(C)(C)N | < 50 | 96 | 5.36 | 6.92 | – | – | 40 |
| C/C=C/C=C/C(=O)N1Cc2cc(OCCc3nc(/C=C/CC(C)C)oc3C)ccc2C[C@H]1C(=O)O.CC(C)(C)N | 81 | 103 | 5.70 | 6.80 | 6.62 | – | 58 |
| CC(C)(C)N.Cc1oc(/C=C/CCC(C)C)nc1CCOc1ccc2c(c1)CN(C(=O)/C=C/C1CC1)[C@H](C(=O)O)C2 | < 50 | 84 | 5.98 | 7.15 | – | – | 27 |
| CC(C)(C)N.Cc1oc(/C=C/CCC(C)C)nc1CCOc1ccc2c(c1)CN(C(=O)/C=C/c1cccs1)[C@H](C(=O)O)C2 | < 50 | 99 | 5.98 | 7.40 | – | – | 45 |
| C=CCCCC(=O)N1Cc2cc(OCCc3nc(/C=C/CCC(C)C)oc3C)ccc2C[C@H]1C(=O)O.CC(C)(C)N | < 50 | 106 | 5.84 | 7.30 | – | – | 22 |
| CC(C)(C)N.CCC/C=C/C(=O)N1Cc2cc(OCCc3nc(/C=C/CCC(C)C)oc3C)ccc2C[C@H]1C(=O)O | < 50 | 96 | 5.93 | 7.52 | – | – | 50 |

Further lines, with some results ahead:

| Emax [2] [%] | Emax [3] [%] | pIC50 [4] | pEC50 [5] | pEC50 [6] | Ratio EC50 [7] | SMILES | Activity [1] [%] |
| --- | --- | --- | --- | --- | --- | --- | --- |
| < 50 | 104 | 5.21 | 6.62 | – | – | CC(C)(C)N.CCC(O)/C=C/C(=O)N1Cc2cc(OCCc3nc(/C=C/CCC(C)C)oc3C)ccc2C[C@H]1C(=O)O (stereo partly drawn) | 19 |
| < 50 | 92 | 5.71 | 6.80 | – | – | C/C=C/C=C/C(=O)N1Cc2cc(OCCc3nc(/C=C/CC(C)(C)C)oc3C)ccc2C[C@H]1C(=O)O.CC(C)(C)N | 39 |
| < 50 | 91 | 5.25 | 6.46 | – | – | C/C=C/C=C/C(=O)N1Cc2cc(OCCc3nc(/C(=C/C)CC)oc3C)ccc2C[C@H]1C(=O)O.CC(C)(C)N | 47 |
| < 50 | 61 | 5.49 | – | – | – | CC(C)(C)N.Cc1oc(/C=C/CCC(C)C)nc1CCOc1ccc2c(c1)CN(C(=O)/C=C/C=C/CO)[C@H](C(=O)O)C2 | 14 |
| < 50 | 86 | 5.47 | 7.15 | – | – | CC(C)(C)N.CCOCCC(=O)N1Cc2cc(OCCc3nc(/C=C/CCC(C)C)oc3C)ccc2C[C@H]1C(=O)O | -13 |
| < 50 | 89 | 5.94 | 6.96 | – | – | C/C=C/C=C/C(=O)N1Cc2cc(OCCc3nc(CCCCC(C)C)oc3C)ccc2C[C@H]1C(=O)O.CC(C)(C)N | 17 |
| < 50 | 82 | 5.85 | 6.51 | – | – | C/C=C/C=C/C(=O)N1Cc2cc(OCCc3nc(/C=C/C(C)CCC)oc3C)ccc2C[C@H]1C(=O)O.CC(C)(C)N (stereo partly drawn) | 71 |
| 62 | 104 | 5.66 | 6.17 | 6.52 | – | C/C=C/C=C/C(=O)N1Cc2cc(OCCc3nc(/C=C/C(C)C)oc3C)ccc2C[C@H]1C(=O)O.CC(C)(C)N | 38 |
| < 50 | 98 | 5.69 | 7.30 | – | – | C/C=C/C=C(\C)C(=O)N1Cc2cc(OCCc3nc(/C=C/CCC(C)C)oc3C)ccc2C[C@H]1C(=O)O.CC(C)(C)N | 21 |
| < 50 | 119 | 5.99 | 7.70 | – | 4 | C/C=C/C=C/C(=O)N1Cc2cc(OCCc3nc(/C(C)=C/CCC(C)C)oc3C)ccc2C[C@H]1C(=O)O.CC(C)(C)N | 56 |
| 66 | 90 | 5.89 | 6.12 | – | – | C/C=C/C=C/C(=O)N1Cc2cc(OCCc3nc(/C=C/C(CC)CC)oc3C)ccc2C[C@H]1C(=O)O.CC(C)(C)N | 18 |
| 64 | 85 | 6.02 | 7.52 | 7.00 | – | CC(C)(C)N.CC(C)=C/C=C/C(=O)N1Cc2cc(OCCc3nc(/C=C/CCC(C)C)oc3C)ccc2C[C@H]1C(=O)O | 44 |

Reference: ChEMBL document CHEMBL1933004, “Novel (S)-1,2,3,4-tetrahydroisoquinoline-3-carboxylic acids: peroxisome proliferator-activated receptor γ selective agonists with protein-tyrosine phosphatase 1B inhibition” (Bioorg Med Chem, 2012)
